Source: publication PMC3304000 (Bioorganic & medicinal chemistry, 2012)
Converted amounts (≈) assume the structure as drawn. “And” between values parts separate entries of the source, which are not always exact repeats. Equal entries are not always repeated.

Assays:
[1] = tested on: Mtb H37Rv luxAB luminescence strain; assay: microbe, parasite or virus in culture; type: cell-based; conditions: Mycobacterium tuberculosis, read-out: LORA MIC (mean ± SD)
[2] = tested on: Drug sensitive Mtb clinical strain #1; assay: MIC against clinical Mtb strain in 7H9/glucose/glycerol/BSA/0.05% Tween 80; type: cell-based; conditions: Mycobacterium tuberculosis
[3] = tested on: Drug sensitive Mtb clinical strain #2; assay: as above; type: cell-based; conditions: Mycobacterium tuberculosis
[4] = Stability in simulated gastric fluid; conditions: after a 15-min incubation
[5] = In vitro stability in rat liver microsomes; conditions: after a 15-min incubation
[6] = tested on: twelve MDR- and XDR-Mtb strains; conditions: cited from earlier work

## Cc1ccn2c(C(=O)OCc3ccccc3)c(-c3ccccc3)nc2c1 [Compound 9, benzyl 7-methyl-2-phenylimidazo[1,2-a]pyridine-3-carboxylate]
[1]
  MIC: 22 µM (≈ 7.53 µg/mL)

## O=C(OCc1ccccc1)c1coc(-c2ccccc2)n1 [Compound 2]
[2]
  MIC: 4.4 µM to 8.9 µM and 1.25 µg/mL to 2.5 µg/mL
[3]
  MIC: 2.2 to 4.4 µM (≈ 0.614 to 1.23 µg/mL)
[4]
  compound remaining in simulated gastric fluid: 0.6%
[5]
  compound remaining in rat liver microsomes: 11%

## O=C(OCc1ccccc1)c1csc(-c2ccccc2)n1 [Compound 5]
[2]
  MIC: 10 µg/mL (≈ 33.9 µM)

## O=[N+]([O-])c1cn2c(n1)OC[C@@H](OCc1ccc(OC(F)(F)F)cc1)C2 [PA-824, reference compound]
[2]
  MIC: 0.45 µM to 0.86 µM and 0.16 µg/mL to 0.31 µg/mL

## Cc1ccn2c(C(=O)OCc3ccccc3)c(C)nc2c1 [Compound 11, benzyl 2,7-dimethylimidazo[1,2-a]pyridine-3-carboxylate]
[2]
  MIC: < 0.01 µg/mL

## Cc1ccn2c(C(=O)NCc3ccccc3)c(C)nc2c1 [Compound 12, N-benzyl-2,7-dimethylimidazo[1,2-a]pyridine-3-carboxamide]
[6]
  MIC against a panel of twelve MDR- and XDR-Mtb strains: 0.07 to 2.3 µM
[4]
  compound remaining in simulated gastric fluid: 100%
